pEC50, pIC50, pKi: −log10 of the molar value.
molecular target: T1, Replicase polyprotein 1ab (Severe acute respiratory syndrome coronavirus 2, UniProt P0DTD1); experiment: Inhibition of N-terminal 6His-tagged SARS-CoV-2 3CL protease using FAM-SAVLQ as substrate pre-incubated for 15 mins followed by substrate addition and incubated for 30 mins by FRET analysis; conditions: not given

Question: With `CCC[C@@H]1C[C@H]1COC(=O)N[C@@H](CC(C)C)C(=O)N[C@@H](C[C@H]1CCNC1=O)[C@@H](O)S(=O)(=O)O` as the compound, how does the pIC50 read?
Answer: 6.77

Question: With `CC(C)C[C@H](NC(=O)OC[C@@H]1C[C@H]1C1CCCCC1)C(=O)N[C@@H](C[C@H]1CCNC1=O)[C@H](O)S(=O)(=O)O` as the compound, how does the pIC50 read?
Answer: 6.77

Question: With `CC(C)C[C@H](NC(=O)OC[C@@H]1C[C@H]1c1ccccc1)C(=O)N[C@H](C=O)C[C@H]1CCNC1=O` as the compound, how does the pIC50 read?
Answer: 6.77

Question: With `CC(C)C[C@H](NC(=O)OC[C@@H]1C[C@H]1C1CCC(F)(F)CC1)C(=O)N[C@@H](C[C@H]1CCNC1=O)[C@H](O)S(=O)(=O)O` as the compound, how does the pIC50 read?
Answer: 6.77

Question: With `CC(C)C[C@H](NC(=O)OC[C@@H]1C[C@H]1c1cccc(Cl)c1)C(=O)N[C@H](C=O)C[C@H]1CCNC1=O` as the compound, how does the pIC50 read?
Answer: 6.77

Question: With `COc1ccc([C@@H]2C[C@H]2COC(=O)N[C@@H](CC(C)C)C(=O)N[C@@H](C[C@H]2CCNC2=O)[C@@H](O)S(=O)(=O)O)cc1` as the compound, how does the pIC50 read?
Answer: 6.77

molecular target: T1, Replicase polyprotein 1ab; experiment: Inhibition of SARS-CoV-2 3CL protease; conditions: not given

Question: With `CCC1(OC(=O)N[C@@H](CC(C)C)C(=O)N[C@H](C=O)C[C@@H]2CCNC2=O)COCOC1` as the compound, how does the pIC50 read?
Answer: 6.35

Question: With `CC(C)C[C@H](NC(=O)OC[C@@H]1C[C@H]1C1CCCCC1)C(=O)N[C@@H](C[C@H]1CCNC1=O)[C@H](O)S(=O)(=O)O` as the compound, how does the pIC50 read?
Answer: 6.55

Question: With `CC(C)C[C@H](NC(=O)OCC1CCC(F)(F)CC1)C(=O)N[C@@H](C[C@@H]1CCNC1=O)C(O)S(=O)(=O)O` (some centres not stated) as the compound, how does the pIC50 read?
Answer: 7.00

Question: With `C=CS(=O)(=O)N(c1ccc(C(C)(C)C)cc1)C(C(=O)NCCc1cccc(OC)c1)c1cccnc1` (configuration not stated) as the compound, how does the pIC50 read?
Answer: 6.62

Question: With `CCC1CCC(OC(=O)N[C@@H](CC(C)C)C(=O)N[C@H](C=O)C[C@@H]2CCNC2=O)CC1` (some centres not stated) as the compound, how does the pIC50 read?
Answer: 5.96

Question: With `S=C(S)NCc1cccnc1` as the compound, how does the pIC50 read?
Answer: 7.52

Question: With `C=CS(=O)(=O)N(c1ccc(C(C)(C)C)cc1)C(C(=O)NCCc1cccc(Cl)c1)c1cccnc1` (configuration not stated) as the compound, how does the pIC50 read?
Answer: 9.77

molecular target: not listed separately; experiment: Binding affinity to SARS-CoV-2 Main protease assessed as inhibition constant; set-up: species or system Severe acute respiratory syndrome coronavirus 2; conditions: not given

Question: With `COc1cc(-c2cccc3[nH]ncc23)cc(C=O)c1OCC(=O)N1CCC(c2cccc(C(=O)N(C)C)c2)C1` (configuration not stated) as the compound, how does the pKi read?
Answer: 7.35

Question: With `COc1cc(-c2cccc3[nH]ncc23)cc(C=O)c1OCC(=O)N(C)C` as the compound, how does the pKi read?
Answer: 7.70

Question: With `CN(C)C(=O)COc1ccc(-c2cccc3[nH]ncc23)cc1C=O` as the compound, how does the pKi read?
Answer: 7.43

tested on: SARS-CoV-2; experiment: Antiviral activity against SARS-CoV-2 infected in Vero E6 cells assessed as reduction in viral replication; assay type: functional, organism-based; conditions: Severe acute respiratory syndrome coronavirus 2, Vero C1008

Question: With `O=C[C@H](C[C@@H]1CCNC1=O)NC(=O)[C@@H]1[C@H]2CCC[C@H]2CN1C(=O)CCc1ccc(Cl)cc1Cl` as the compound, how does the pEC50 read?
Answer: 6.27

Question: With `Cc1ccc(C(=O)C(C)CN2CCCCC2)cc1` (configuration not stated) [TOLPERISONE] as the compound, how does the pEC50 read?
Answer: 4.72

Question: With `Cc1cc(C(=O)N[C@@H](C)C(=O)N[C@H](C(=O)N[C@@H](CC(C)C)[C@H](/C=C/C(=O)OCc2ccccc2)C[C@@H]2CCNC2=O)C(C)C)no1` as the compound, how does the pEC50 read?
Answer: 4.78

Question: With `O=C1c2ccccc2CCC1CNCCc1ccc(O)cc1` (configuration not stated) as the compound, how does the pEC50 read?
Answer: 4.62

Question: With `COc1cc(-c2cccc3[nH]ncc23)cc(C=O)c1OCC(=O)N(C)C` as the compound, how does the pEC50 read?
Answer: 5.28

Question: With `CN(C)C(=O)COc1ccc(-c2cccc3[nH]ncc23)cc1C=O` as the compound, how does the pEC50 read?
Answer: 5.60

tested on: not listed separately; experiment: Inhibition of SARS-CoV-2 Main protease using DABCYL-KTSAVLQ-SGFRKM-E(EDANS) as substrate pre-treated for 15 mins and measured for 60 mins by FRET assay; set-up: species or system Severe acute respiratory syndrome coronavirus 2; conditions: not given

Question: With `O=Cc1ncc(Br)cc1OCc1ccc(Cl)c(Br)c1` as the compound, how does the pIC50 read?
Answer: 5.22

Question: With `O=Cc1ncc(Br)cc1OCc1cc(Br)ccc1Cl` as the compound, how does the pIC50 read?
Answer: 5.22

Question: With `Cc1ccc(COc2cc(Br)cnc2C=O)cc1[N+](=O)[O-]` as the compound, how does the pIC50 read?
Answer: 4.92

Question: With `O=Cc1ncc(Br)cc1OCc1ccc2ccccc2c1` as the compound, how does the pIC50 read?
Answer: 4.59

Question: With `O=Cc1ncc(Br)cc1OCc1ccc(Cl)c([N+](=O)[O-])c1` as the compound, how does the pIC50 read?
Answer: 6.00

tested on: SARS-CoV-2; experiment: Antiviral activity against SARS-CoV-2 infected in African green monkey Vero cells assessed as reduction in viral replication incubated for 72 hrs by RT-qPCR analysis; assay type: functional, organism-based; conditions: Severe acute respiratory syndrome coronavirus 2, Vero

Question: With `CCC[C@H](NC(=O)[C@@H]1[C@H]2CCC[C@H]2CN1C(=O)[C@@H](NC(=O)[C@@H](NC(=O)c1cnccn1)C1CCCCC1)C(C)(C)C)C(=O)C(=O)NC1CC1` as the compound, how does the pEC50 read?
Answer: 5.88

tested on: SARS-CoV-2; experiment: Antiviral activity against SARS-CoV-2 infected in African green monkey Vero E6 cells assessed as reduction in viral replication incubated for 72 hrs by RT-qPCR analysis; assay type: functional, organism-based; conditions: Severe acute respiratory syndrome coronavirus 2, Vero C1008, 72 h

Question: With `CC[C@H](NC[C@H](CS(=O)(=O)CC1CC1)N[C@@H](c1ccc(F)cc1)C(F)(F)F)C(=O)C(=O)NC1CC1` as the compound, how does the pEC50 read?
Answer: 6.52

tested on: not listed separately; experiment: Inhibition of SARS-CoV-2 MPro using Dabcyl-KTSAVLQSGFRKME-Edans as substrate preincubated for 30 mins followed by substrate addition and measured after 60 mins by fluorescence based assay; set-up: species or system Severe acute respiratory syndrome coronavirus 2; conditions: not given

Question: With `O=C(NCc1ccccn1)C(=O)[C@@H](Cc1ccccc1)NC(=O)[C@H]1CCC(=O)N1Cc1ccccc1` as the compound, how does the pIC50 read?
Answer: 5.52

molecular target: T1, Replicase polyprotein 1ab; experiment: Inhibition of SARS-CoV-2 3CL protease by luciferase reporter assay; conditions: not given

Question: With `O=C(CCl)Nc1sc(-c2ccccc2)cc1C(=O)NC1CC1` as the compound, how does the pIC50 read?
Answer: 5.63

Question: With `C=CC(=O)O[C@H](CC)C(=O)NCCc1c[nH]c2ccccc12` as the compound, how does the pIC50 read?
Answer: 3.86

Question: With `C=CC(=O)O[C@H](C(=O)NCc1cccc(OC)c1OC)c1ccc([N+](=O)[O-])cc1` as the compound, how does the pIC50 read?
Answer: 5.03

Question: With `C=CC(=O)N(CCC)[C@H](C(=O)NCc1ccc2c(c1)OCO2)c1cccc(O)c1` as the compound, how does the pIC50 read?
Answer: 6.00

tested on: not listed separately; experiment: Inhibition of C-terminal GST-tagged SARS-CoV-2 Main protease extracted from Escherichia coli BL21 (DE3) measured for 60 mins by FRET assay; set-up: species or system Severe acute respiratory syndrome coronavirus 2; conditions: not given

Question: With `O=c1c2cccc([N+](=O)[O-])c2[se]n1Cc1ccccc1` as the compound, how does the pIC50 read?
Answer: 5.70

Question: With `O=c1c2cccc([N+](=O)[O-])c2[se]n1-c1ccccc1` as the compound, how does the pIC50 read?
Answer: 6.13

Question: With `O=c1c2ccccc2[se]n1-c1cccc2cccnc12` as the compound, how does the pIC50 read?
Answer: 5.59
